# Measurements: patent publication US20100298141A1, “SUBSTITUTED PYRIDINE N-OXIDE HERBICIDES” (E. I. DU PONT DE NEMOURS AND COMPANY, priority 2007, published 2010)
# Legend:
# Goosegrass = experiment: Test C pre-/postemergence test; type: in vivo, Eleusin indica; conditions: for Plant response rating, Goosegrass: 31 g ai/ha, scale 0 to 100 (0 no effect, 100 complete control)
# How it was run: (§1)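 Compounds in a non-phytotoxic solvent with surfactant applied preemergence to seeded pots and, at the same time, postemergence to plants 2–18 cm tall (1- to 4-leaf stage). Paddy tests: pots flooded to 3 cm, compound applied into the water, depth held throughout.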
# [1] = test system: common (oilseed) sunflower; experiment: Test C pre-/postemergence test; type: in vivo, Helianthus annuus; conditions: for Plant response rating, Sunflower: 31 g ai/ha, scale 0 to 100 (0 no effect, 100 complete control)
# How it was run: as §1
# barnyardgrass = experiment: Test A pre-/postemergence greenhouse test; type: in vivo, Echinochloa crus-galli; conditions: for Plant response rating, Barnyardgrass: 0 to 100 scale where 0 is no effect and 100 is complete control; for Barnyardgrass plant response rating: 0 to 100 scale
# How it was run: (§2)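 Visual injury ratings, made relative to untreated controls roughly ten days after treatment, cover both preemergence and postemergence application. Compounds in a surfactant-containing non-phytotoxic solvent were sprayed onto the soil surface after sowing and, simultaneously, onto young plants at the one- to two-leaf stage.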
# bermudagrass = experiment: Test C pre-/postemergence test; type: in vivo, Cynodon dactylon; conditions: for Plant response rating, Bermudagrass: 31 g ai/ha
# How it was run: as §1
# morningglory = experiment: Test A pre-/postemergence greenhouse test; type: in vivo, Ipomoea spp.; conditions: for Plant response rating, Morningglory: 0 to 100 scale where 0 is no effect and 100 is complete control; for Morningglory plant response rating: 0 to 100 scale
# How it was run: as §2
# lambsquarters = experiment: Test C pre-/postemergence test; type: in vivo, Chenopodium album
# How it was run: as §1
# redroot pigweed = experiment: Test A pre-/postemergence greenhouse test; type: in vivo, Amaranthus retroflexus; conditions: for Plant response rating, Pigweed: 0 to 100 scale where 0 is no effect and 100 is complete control; for Pigweed plant response rating: 0 to 100 scale
# How it was run: as §2
# wheat [2] = experiment: Test C pre-/postemergence test; type: in vivo, Triticum aestivum; conditions: for Plant response rating, Wheat: 31 g ai/ha, scale 0 to 100 (0 no effect, 100 complete control)
# How it was run: as §1
# pigweed = experiment: Test C pre-/postemergence test; type: in vivo, Amaranthus retroflexus; conditions: for Plant response rating, Pigweed: 31 g ai/ha, scale 0 to 100 (0 no effect, 100 complete control)
# How it was run: as §1
# giant foxtail = experiment: Test A pre-/postemergence greenhouse test; type: in vivo, Setaria faberi; conditions: for Plant response rating, Foxtail, Giant: 0 to 100 scale where 0 is no effect and 100 is complete control; for Foxtail, Giant plant response rating: 0 to 100 scale
# How it was run: as §2
# corn = experiment: Test A pre-/postemergence greenhouse test; type: in vivo, Zea mays; conditions: for Plant response rating, Corn: 0 to 100 scale where 0 is no effect and 100 is complete control; for Corn plant response rating: 0 to 100 scale
# How it was run: as §2
# rice = experiment: Test C flooded paddy test; type: in vivo, Oryza sativa; conditions: Flood
# How it was run: (§3)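 Pots were flooded to 3 cm above the soil surface at treatment, compound applied directly to the paddy water, and that depth held throughout. Plants were kept in a greenhouse for 13 to 15 days, then visually rated against untreated controls.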
# Surinam grass = experiment: Test C pre-/postemergence test; type: in vivo, Brachiaria decumbens; conditions: for Plant response rating, Surinam Grass: 31 g ai/ha, scale 0 to 100 (0 no effect, 100 complete control)
# How it was run: as §1
# wheat [3] = experiment: Test A pre-/postemergence greenhouse test; type: in vivo, Triticum aestivum; conditions: for Plant response rating, Wheat: 0 to 100 scale where 0 is no effect and 100 is complete control; for Wheat plant response rating: 0 to 100 scale
# How it was run: as §2
# eastern black nightshade = experiment: Test C pre-/postemergence test; type: in vivo, Solanum ptycanthum; conditions: for Plant response rating, Nightshade: 31 g ai/ha, scale 0 to 100 (0 no effect, 100 complete control)
# How it was run: as §1
# umbrella sedge = experiment: Test C flooded paddy test; type: in vivo, Cyperus difformis; conditions: Flood
# How it was run: as §3
# crabgrass = experiment: Test C pre-/postemergence test; type: in vivo, Digitaria sanguinalis; conditions: for Plant response rating, Crabgrass, Large: 31 g ai/ha, scale 0 to 100 (0 no effect, 100 complete control)
# How it was run: as §1
# [4] = 62 g ai/ha, Preemergence, scale 0 to 100
# [5] = 125 g ai/ha, preemergence, scale 0 (no effect) to 100 (complete control)
# [6] = preemergence, 250 g ai/ha, scale 0 (no effect) to 100 (complete control)
# [7] = Postemergence, 500 g ai/ha, 0 is no effect, 100 is complete control
# [8] = Preemergence, 125 g ai/ha, 0 no effect, 100 complete control
# [9] = 62 g ai/ha, Preemergence, scale 0 to 100 (0 no effect, 100 complete control)
# [10] = Preemergence, scale 0 to 100 (0 no effect, 100 complete control)
# [11] = 62 g ai/ha, scale 0 to 100 (0 no effect, 100 complete control)
# [12] = 250 g ai/ha, scale 0 to 100, 0 no effect, 100 complete control, 13 to 15 days
structure (smiles),measurement,setting,value
Cn1nc(OC(F)F)c(CS(=O)(=O)c2cccc[n+]2[O-])c1C(F)(F)F [Compound 80],Goosegrass plant response rating,Goosegrass; [4],98
same,Goosegrass plant response rating,Goosegrass; [5],100
same,"Plant response rating, Goosegrass",Goosegrass; Preemergence,80
same,Goosegrass plant response rating,Goosegrass; [6],100
same,Sunflower plant response rating,[1]; [4],20
same,Sunflower plant response rating,[1]; [5],40
same,"Plant response rating, Sunflower",[1]; Preemergence,5
same,Sunflower plant response rating,[1]; [6],45
same,"Plant response rating, Barnyardgrass","barnyardgrass; Postemergence, 125 g ai/ha",80
same,Barnyardgrass plant response rating,barnyardgrass; [7],90
same,Barnyardgrass plant response rating,barnyardgrass; [8],90
same,"Plant response rating, Barnyardgrass","barnyardgrass; Preemergence, 500 g ai/ha",100
same,Bermudagrass plant response rating,bermudagrass; [9],100
same,Bermudagrass plant response rating,bermudagrass; [5],100
same,"Plant response rating, Bermudagrass",bermudagrass; [10],100
same,Bermudagrass plant response rating,bermudagrass; [6],100
same,"Plant response rating, Morningglory","morningglory; Postemergence, 125 g ai/ha",10
same,Morningglory plant response rating,morningglory; [7],50
same,Morningglory plant response rating,morningglory; [8],60
same,"Plant response rating, Morningglory","morningglory; Preemergence, 500 g ai/ha",80
same,Lambsquarters plant response rating,lambsquarters; [5],60
same,Lambsquarters plant response rating,lambsquarters; [6],100
same,"Plant response rating, Pigweed","redroot pigweed; Postemergence, 125 g ai/ha",10
same,Pigweed plant response rating,redroot pigweed; [7],40
same,Pigweed plant response rating,redroot pigweed; [8],70
same,"Plant response rating, Pigweed","redroot pigweed; Preemergence, 500 g ai/ha",90
same,Wheat plant response rating,wheat [2]; [4],45
same,Wheat plant response rating,wheat [2]; [5],65
same,"Plant response rating, Wheat",wheat [2]; Preemergence,10
same,Wheat plant response rating,wheat [2]; [6],80
same,Pigweed plant response rating,pigweed; [4],0
same,Pigweed plant response rating,pigweed; [5],0
same,"Plant response rating, Pigweed",pigweed; Preemergence,0
same,Pigweed plant response rating,pigweed; [6],0
same,"Plant response rating, Foxtail, Giant","giant foxtail; Postemergence, 125 g ai/ha",70
same,"Foxtail, Giant plant response rating",giant foxtail; [7],80
same,"Foxtail, Giant plant response rating",giant foxtail; [8],90
same,"Plant response rating, Foxtail, Giant","giant foxtail; Preemergence, 500 g ai/ha",100
same,"Plant response rating, Corn","corn; Postemergence, 125 g ai/ha",0
same,Corn plant response rating,corn; [7],50
same,Corn plant response rating,corn; [8],0
same,"Plant response rating, Corn","corn; Preemergence, 500 g ai/ha",60
same,"Plant response rating, Rice",rice; [11],0
same,"Plant response rating, Rice",rice; [12],50
same,Surinam Grass plant response rating,Surinam grass; [4],80
same,Surinam Grass plant response rating,Surinam grass; [5],80
same,"Plant response rating, Surinam Grass",Surinam grass; Preemergence,70
same,Surinam Grass plant response rating,Surinam grass; [6],100
same,"Plant response rating, Wheat","wheat [3]; Postemergence, 125 g ai/ha",30
same,Wheat plant response rating,wheat [3]; [7],60
same,Wheat plant response rating,wheat [3]; [8],10
same,"Plant response rating, Wheat","wheat [3]; Preemergence, 500 g ai/ha",80
same,Nightshade plant response rating,eastern black nightshade; [4],80
same,"Plant response rating, Nightshade",eastern black nightshade; Preemergence,50
same,Nightshade plant response rating,eastern black nightshade; [6],90
same,"Plant response rating, Sedge, Umbrella",umbrella sedge; [11],0
same,"Plant response rating, Sedge, Umbrella",umbrella sedge; [12],85
same,"Crabgrass, Large plant response rating",crabgrass; [4],85
same,"Crabgrass, Large plant response rating",crabgrass; [5],85
same,"Plant response rating, Crabgrass, Large",crabgrass; Preemergence,85
same,"Crabgrass, Large plant response rating",crabgrass; [6],98
Cc1cc([S+]([O-])Cc2c(C(F)(F)F)nn(C)c2OCC(F)(F)F)[n+]([O-])cc1Cl (centres unmarked) [Compound 70],Goosegrass plant response rating,Goosegrass; [4],100
same,Goosegrass plant response rating,Goosegrass; [5],100
same,"Plant response rating, Goosegrass",Goosegrass; Preemergence,100
same,Goosegrass plant response rating,Goosegrass; [6],100
same,Sunflower plant response rating,[1]; [4],45
same,Sunflower plant response rating,[1]; [5],45
same,"Plant response rating, Sunflower",[1]; Preemergence,0
same,Sunflower plant response rating,[1]; [6],80
same,"Plant response rating, Barnyardgrass","barnyardgrass; Postemergence, 125 g ai/ha",70
same,Barnyardgrass plant response rating,barnyardgrass; [7],90
same,Barnyardgrass plant response rating,barnyardgrass; [8],80
same,"Plant response rating, Barnyardgrass","barnyardgrass; Preemergence, 500 g ai/ha",100
same,Bermudagrass plant response rating,bermudagrass; [9],100
same,Bermudagrass plant response rating,bermudagrass; [5],100
same,"Plant response rating, Bermudagrass",bermudagrass; [10],100
same,Bermudagrass plant response rating,bermudagrass; [6],100
same,"Plant response rating, Morningglory","morningglory; Postemergence, 125 g ai/ha",30
same,Morningglory plant response rating,morningglory; [7],70
same,Morningglory plant response rating,morningglory; [8],30
same,"Plant response rating, Morningglory","morningglory; Preemergence, 500 g ai/ha",100
same,Lambsquarters plant response rating,lambsquarters; [4],100
same,Lambsquarters plant response rating,lambsquarters; [5],100
same,"Plant response rating, Lambsquarters","lambsquarters; Preemergence, 31 g ai/ha, scale 0 to 100 (0 no effect, 100 complete control)",100
same,Lambsquarters plant response rating,lambsquarters; [6],100
same,"Plant response rating, Pigweed","redroot pigweed; Postemergence, 125 g ai/ha",40
same,Pigweed plant response rating,redroot pigweed; [7],80
same,Pigweed plant response rating,redroot pigweed; [8],90
same,"Plant response rating, Pigweed","redroot pigweed; Preemergence, 500 g ai/ha",100
same,Wheat plant response rating,wheat [2]; [4],60
same,Wheat plant response rating,wheat [2]; [5],95
same,"Plant response rating, Wheat",wheat [2]; Preemergence,15
same,Wheat plant response rating,wheat [2]; [6],95
same,Pigweed plant response rating,pigweed; [4],100
same,Pigweed plant response rating,pigweed; [5],100
same,"Plant response rating, Pigweed",pigweed; Preemergence,100
same,Pigweed plant response rating,pigweed; [6],100
same,"Plant response rating, Foxtail, Giant","giant foxtail; Postemergence, 125 g ai/ha",60
same,"Foxtail, Giant plant response rating",giant foxtail; [7],90
same,"Foxtail, Giant plant response rating",giant foxtail; [8],100
same,"Plant response rating, Foxtail, Giant","giant foxtail; Preemergence, 500 g ai/ha",100
same,"Plant response rating, Corn","corn; Postemergence, 125 g ai/ha",50
same,Corn plant response rating,corn; [7],80
same,Corn plant response rating,corn; [8],20
same,"Plant response rating, Corn","corn; Preemergence, 500 g ai/ha",90
same,"Plant response rating, Rice",rice; [11],45
same,"Plant response rating, Rice",rice; [12],90
same,Surinam Grass plant response rating,Surinam grass; [4],85
same,Surinam Grass plant response rating,Surinam grass; [5],90
same,"Plant response rating, Surinam Grass",Surinam grass; Preemergence,65
same,Surinam Grass plant response rating,Surinam grass; [6],100
same,"Plant response rating, Wheat","wheat [3]; Postemergence, 125 g ai/ha",70
same,Wheat plant response rating,wheat [3]; [7],70
same,Wheat plant response rating,wheat [3]; [8],50
same,"Plant response rating, Wheat","wheat [3]; Preemergence, 500 g ai/ha",90
same,Nightshade plant response rating,eastern black nightshade; [4],100
same,Nightshade plant response rating,eastern black nightshade; [5],100
same,"Plant response rating, Nightshade",eastern black nightshade; Preemergence,100
same,Nightshade plant response rating,eastern black nightshade; [6],100
same,"Plant response rating, Sedge, Umbrella",umbrella sedge; [11],80
same,"Plant response rating, Sedge, Umbrella",umbrella sedge; [12],100
same,"Crabgrass, Large plant response rating",crabgrass; [4],100
same,"Crabgrass, Large plant response rating",crabgrass; [5],100
same,"Plant response rating, Crabgrass, Large",crabgrass; Preemergence,85
same,"Crabgrass, Large plant response rating",crabgrass; [6],100
